The source made the active and inactive calls. The rule behind the calls is not given here.
Columns and labels:
AGS = test: Antiproliferative activity against human AGS cells assessed as inhibition of cell growth incubated for 72 hrs by CCK-8 assay; format: functional, cell-based
U-251 [1] = test: Inhibition of sphere formation in human U-251MG cells assessed as fold reduction in sphere initiating frequency at 8 uM incubated for 10 days by microscopic analysis relative to control; format: functional; settings: time 10 day
LN-229 [2] = test: Inhibition of sphere formation in human LN-229 cells at 8 uM measured after 10 days in well containing 100 cells by microscopic analysis; format: functional, cell-based; settings: time 10.0 day
Hs 683 [3] = test: Inhibition of sphere formation in human Hs 683 cells assessed as fold reduction in sphere initiating frequency at 1 uM incubated for 10 days by microscopic analysis relative to control; format: functional; settings: time 10 day
LN-229-Luc [4] = test: Antitumor activity against human Ln-229-Luc cells xenografted in BALB/c nude mouse assessed as increase in overall survival time at 45 mg/kg, po administered once a day and measured after 3 to 31 days; format: functional, organism-based; settings: time 3-31 day
[5] = Drug concentration in male Sprague-Dawley rat heart at 45 mg/kg, po measured after 8 hrs by LC-MS/MS analysis; format: ADME, organism-based; settings: read-out: Ct
U-251 [6] = test: Induction of apoptosis in human U-251MG cells at 1.25 uM incubated for 24 hrs by Annexin V-FITC/PI staining based flow cytometry analysis; format: functional, cell-based
LN-229 [7] = test: Antiproliferative activity against human LN-229 cells assessed as inhibition of cell growth measured after 72 hrs by CCK-8 assay; format: functional, cell-based; settings: LN-229, 72 h
MDR1 [8] = test: Apparent permeability across apical to basolateral side in MDCKII-MDR1 cells assessed as drug recovery at 1 uM incubated for 2 hrs by LC-MS/MS analysis; format: ADME, cell-based, Canis lupus familiaris; settings: dog, MDCK-MDR1, read-out: Drug recovery
[9] = Drug concentration in male Sprague-Dawley rat lung at 45 mg/kg, po measured after 8 hrs by LC-MS/MS analysis; format: ADME, organism-based; settings: read-out: Ct
LN-229 [10] = test: Inhibition of sphere formation in human LN-229 cells at 8 uM measured after 10 days in well containing 10000 cells by microscopic analysis; format: functional, cell-based; settings: time 10.0 day
H4 [11] = test: Downregulation of SOX2 protein expression in human H4 cells at 2 to 4 uM incubated for 48 hrs by Western blot analysis; format: functional, cell-based; settings: dose 2-4 µM
[12] = Drug concentration in male Sprague-Dawley rat brain at 45 mg/kg, po measured after 8 hrs by LC-MS/MS analysis; format: ADME, organism-based; settings: read-out: Ct
[13] = Toxicity in male C57BL/6 mouse assessed as change in cellular structure of intestine at 45 mg/kg, po administered once a day for 2 weeks by H and E staining based analysis; format: organism-based; settings: in vivo, 336 h
H4 [14] = test: Inhibition of sphere formation in human H4 cells at 8 uM measured after 10 days in well containing 100 cells by microscopic analysis; format: functional, cell-based; settings: time 10.0 day
H4 [15] = test: Inhibition of sphere formation in human H4 cells at 4 uM measured after 10 days in well containing 10000 cells by microscopic analysis; format: functional, cell-based; settings: time 10.0 day
U-251 [16] = test: Antiproliferative activity against human U-251MG cells assessed as inhibition of cell growth measured after 72 hrs by CCK-8 assay; format: functional, cell-based; settings: U-251, 72 h
LN-229 [17] = test: Inhibition of sphere formation in human LN-229 cells assessed as fold reduction in sphere initiating frequency at 1 uM incubated for 10 days by microscopic analysis relative to control; format: functional; settings: time 10 day
[18] = Drug concentration in female Sprague-Dawley rat heart at 45 mg/kg, po measured after 8 hrs by LC-MS/MS analysis; format: ADME, organism-based; settings: read-out: Ct
LN-229 [19] = test: Inhibition of sphere formation in human LN-229 cells at 1 uM measured after 10 days in well containing 1 cells by microscopic analysis; format: functional, cell-based; settings: time 10.0 day
Hs 683 [20] = test: Induction of apoptosis in human Hs 683 cells assessed as apoptotic cells at 2.5 uM incubated for 24 hrs by Annexin V-FITC/PI staining based flow cytometry analysis relative to control; format: functional
H4 [21] = test: Inhibition of colony formation in human H4 cells assessed as reduction in colony area at 5 uM treated on day 1 and measured after 14 days by crystal violet staining based microscopic analysis relative to control; format: functional; settings: H4, 336 h, time 14 day
Hs 683 [22] = test: Induction of apoptosis in human Hs 683 cells at 1.25 uM incubated for 24 hrs by Annexin V-FITC/PI staining based flow cytometry analysis; format: functional, cell-based
H4 [23] = test: Inhibition of sphere formation in human H4 cells at 1 uM measured after 10 days in well containing 10 cells by microscopic analysis; format: functional, cell-based; settings: time 10.0 day
[24] = Drug concentration in female Sprague-Dawley rat liver at 45 mg/kg, po measured after 8 hrs by LC-MS/MS analysis; format: ADME, organism-based; settings: read-out: Ct
[25] = Toxicity in male C57BL/6 mouse assessed as change in cellular structure of thymus at 45 mg/kg, po administered once a day for 2 weeks by H and E staining based analysis; format: organism-based; settings: in vivo, 336 h
[26] = Drug concentration in male Sprague-Dawley rat liver at 45 mg/kg, po measured after 8 hrs by LC-MS/MS analysis; format: ADME, organism-based; settings: read-out: Ct
MDR1 [27] = test: Apparent permeability across basolateral to apical side in MDCKII-MDR1 cells assessed as drug recovery at 1 uM incubated for 2 hrs by LC-MS/MS analysis; format: ADME, cell-based, Canis lupus familiaris; settings: dog, MDCK-MDR1, read-out: Drug recovery
H4 [28] = test: Inhibition of sphere formation in human H4 cells assessed as fold reduction in sphere initiating frequency at 1 uM incubated for 10 days by microscopic analysis relative to control; format: functional; settings: time 10 day
[29] = Toxicity in female C57BL/6 mouse assessed as change in cellular structure of intestine at 45 mg/kg, po administered once a day for 2 weeks by H and E staining based analysis; format: organism-based; settings: in vivo, 336 h
[30] = Toxicity in male C57BL/6 mouse assessed as change in cellular structure of heart at 45 mg/kg, po administered once a day for 2 weeks by H and E staining based analysis; format: organism-based; settings: in vivo, 336 h
LN-229 [31] = test: Inhibition of cell migration in human LN-229 cells assessed as reduction in wound closure ability at 5 uM measured after 24 hrs by wound healing assay relative to control; format: functional
Hs 683 [32] = test: Inhibition of sphere formation in human Hs 683 cells at 4 uM measured after 10 days in well containing 1 cells by microscopic analysis; format: functional, cell-based; settings: time 10.0 day
H4 [33] = test: Inhibition of sphere formation in human H4 cells assessed as fold reduction in sphere initiating frequency at 8 uM incubated for 10 days by microscopic analysis relative to control; format: functional; settings: time 10 day
MDR1 [34] = test: Efflux ratio of apparent permeability across basolateral to apical side over apical to basolateral side in MDCKII-MDR1 cells at 1 uM incubated for 2 hrs by LC-MS/MS analysis; format: ADME, cell-based, Canis lupus familiaris; settings: dog, MDCK-MDR1
LN-229-Luc [35] = test: Antitumor activity against human Ln-229-Luc cells xenografted in po dosed BALB/c nude mouse administered once a day and measured after 3 to 31 days; format: functional, organism-based; settings: dose 15-45 mg/kg, time 3-31 day
[36] = Drug concentration in female Sprague-Dawley rat stomach at 45 mg/kg, po measured after 8 hrs by LC-MS/MS analysis; format: ADME, organism-based; settings: read-out: Ct
H4 [37] = test: Inhibition of sphere formation in human H4 cells assessed as fold reduction in sphere initiating frequency at 4 uM incubated for 10 days by microscopic analysis relative to control; format: functional; settings: time 10 day
Hs 683 [38] = test: Inhibition of sphere formation in human Hs 683 cells assessed as fold reduction in sphere initiating frequency at 4 uM incubated for 10 days by microscopic analysis relative to control; format: functional; settings: time 10 day

## N#CC1(C(=O)NCCC2CCN(Cc3ccccc3)CC2)CC2(Br)c3ccccc3C1c1ccccc12 (racemic)
AGS
  IC50: 9.42 µM
U-251 [1]
  fold change (FC): 166
LN-229 [2]
  inhibition: Active
Hs 683 [3]
  fold change (FC): 2.8
LN-229-Luc [4]
  Activity: Active
[5]
  concentration at 8 h: 193 ng/g
U-251 [6]
  Activity: Active
LN-229 [7]
  IC50: 4.99 µM
MDR1 [8]
  recovery at 2 h, 1 µM: 96%
[9]
  concentration at 8 h: 2050 ng/g
LN-229 [10]
  inhibition: inactive
H4 [11]
  Activity: Active
[12]
  concentration at 8 h: 9.2 ng/g
[13]
  Activity: Non-Toxic
H4 [14]
  inhibition: Active
H4 [15]
  inhibition: inactive
U-251 [16]
  IC50: 13.1 µM
LN-229 [17]
  fold change (FC): 4.37
[18]
  concentration at 8 h: 783 ng/g
LN-229 [19]
  inhibition: Active
Hs 683 [20]
  Activity: ~20%
H4 [21]
  inhibition at 5 µM: 100%
Hs 683 [22]
  Activity: Active
H4 [23]
  inhibition: Active
[24]
  concentration at 8 h: 1400 ng/g
[25]
  Activity: Non-Toxic
[26]
  concentration at 8 h: 779 ng/g
MDR1 [27]
  recovery at 2 h, 1 µM: 101%
H4 [28]
  fold change (FC): 14.09
[29]
  Activity: Non-Toxic
[30]
  Activity: Non-Toxic
LN-229 [31]
  inhibition at 5 µM: 16.6%
Hs 683 [32]
  inhibition: Active
H4 [33]
  fold change (FC): 51.75
MDR1 [34]
  efflux ratio at 2 h, 1 µM: 3.25
LN-229-Luc [35]
  Activity: Dose-Dependent Effect
[36]
  concentration at 8 h: 4370 ng/g
H4 [37]
  fold change (FC): 32.7
Hs 683 [38]
  fold change (FC): 39.23

Reference: ChEMBL document CHEMBL5528066, “Discovery of Novel N-(Anthracen-9-ylmethyl) Benzamide Derivatives as ZNF207 Inhibitors Promising in Treating Glioma” (J Med Chem, 2024)
